Source: patent US10933032B2, “Methods for the treatment of cancer using coenzyme Q10 combination therapies” (Berg LLC, priority 2013, dated 2021)

What was measured:
Experiment in all cases: Induction of early apoptosis (Bcl-2, annexin V, or caspase activation)
Format in all cases: cell-based
BT-20 = details: BREAST: BT-20
Method: (§1) The effects of Coenzyme Q10 treatment on a variety of oncogenic and normal cell lines were examined and compared. The sensitivity of cells to Coenzyme Q10 was assessed by monitoring induction of apoptosis. CoQ10 treatment of cells was carried out as described in detail below in the Materials and Methods. Induction of apoptosis was assessed in the treated cells by monitoring indicators of early apoptosis (e.g., Bcl-2 expression, caspase activation and by using annexin V assays) as described below. From these studies, the minimal CoQ10 dosage, e.g., concentration of CoQ10 and time of treatment, required to induce apoptosis in the panel of cell lines was determined.
(§2) Cells were cultured in T-75 flasks with relevant medium supplemented with 10% Fetal Bovine Serum (FBS), 1% PSA (penicillin, streptomycin, amphotericin B) (Invitrogen and Cellgro) in a 37° C. incubator with 5% CO2 levels until 70-80% confluence was reached. To harvest cells for treatment, flasks were primed with 1 mL Trypsin, aspirated, trypsinized with an additional 3 mL, and incubated at 37° C. for 3-5 minutes. Cells were then neutralized with an equal volume of media and the subsequent solution was centrifuged at […] for 8 minutes. The supernatant was aspirated and the cells were resuspended with 8.5 ml of media. A mixture of 500 ul of the resuspension and 9.5 ml of […] was read twice by a coulter counter and the appropriate number of cells to be seeded into each dish was determined. Control and concentration ranging from 0-200 μM groups were examined in triplicate. From a 500 μM CoQ-10 stock solution, serial dilutions were performed to achieve desired experimental concentration in appropriate dishes. Dishes were incubated in a 37° C. incubator with 5% CO2 levels for 0-72 hours depending on cell type and experimental protocol.
(§3) Following cell treatment incubation period was complete, protein isolation was performed. Dishes of all treatment groups were washed twice with 2 ml, and once with 1 ml of ice cold 1× Phosphate Buffered Saline (PBS). The PBS was aspirated from the dishes after the initial 2 washes only. Cells were gently scraped and collected into microcentrifuge tubes using the final volume from the third wash and centrifuged at 10,000 rpm for 10 minutes. After centrifugation, the supernatant was aspirated and the pellet was lysed with 50 uL of lysis buffer (1 uL of protease and phosphotase inhibitor for every 100 uL of lysis buffer). Samples were then frozen overnight at −20° C.
(§4) After the cell treatment incubation period was complete, protein isolation was performed. Flasks of all treatment groups were washed twice with 5 mL, and once with 3 mL of ice cold 1×PBS. The PBS was aspirated from the flasks after the first 2 washes only. Cells were gently scraped and collected into 15 mL centrifuge tubes using the final volume from the third wash and centrifuged for at 10,000 rpm for 10 minutes. After centrifugation, the supernatant was aspirated and the pellet was lysed with an appropriate amount of lysis buffer (1 uL of protease and phosphotase inhibitor for every 100 uL of lysis buffer). Lysis buffer volume was dependent on pellet size. Samples were transferred in microcentrifuge tubes and frozen overnight at −20° C.
(§5) Samples were thawed at […] and sonicated to ensure homogenization the day following protein isolation. Protein quantification was performed using the micro BCA protein assay kit (Pierce). To prepare samples for Immuno-blotting, a 1:19 solution of betamercaptoethanol (Sigma) to sample buffer (Bio-Rad) was prepared. Samples were diluted 1:1 with the betamercaptoethanol-sample buffer solution, boiled at 95° C. for 5 minutes, and frozen overnight at −20° C.
(§6) The volume of sample to load per well was determined using the raw mean concentration of protein obtained from the BCA protein assay. Approximately 30-60 μg of protein were loaded for each treatment time point. […]

[1] = system: Keratinocytes (Heka, Hekn); details: SKIN: Keratinocytes (Heka, Hekn)
Method: as §1, §2, §3, §4, §5, §6

MDA MB 468 = details: BREAST: MDA MB 468
Method: as §1, §2, §3, §4, §5, §6

Osteosarcoma (143b) = details: BONE: Osteosarcoma (143b)
Method: as §1, §2, §3, §4, §5, §6

Ewing's sarcoma (NCI) = details: BONE: Ewing's sarcoma (NCI)
Method: as §1, §2, §3, §4, §5, §6

[2] = system: Aortic smooth muscle (HASMC); details: Heart: Aortic smooth muscle (HASMC)
Method: as §1, §2, §3, §4, §5, §6

PC3 = details: PROSTATE: PC3
Method: as §1, §2, §3, §4, §5, §6

SkBr-3 = details: BREAST: SkBr-3
Method: as §1, §2, §3, §4, §5, §6

Melanocytes (Hema, LP) = details: SKIN: Melanocytes (Hema, LP)
Method: as §1, §2, §3, §4, §5, §6

[3] = system: Mammary fiboblasts: 184A1 and 184B5) (Lawrence Berkeley); details: BREAST: Mammary fiboblasts: 184A1 and 184B5
Method: as §1, §2, §3, §4, §5, §6

ZR-75 = details: BREAST: ZR-75
Method: as §1, §2, §3, §4, §5, §6

Hep3B = details: LIVER: Hep3B
Method: as §1, §2, §3, §4, §5, §6

HepG2 = details: LIVER: HepG2
Method: as §1, §2, §3, §4, §5, §6

Fibroblasts (nFib) = details: SKIN: Fibroblasts (nFib)
Method: as §1, §2, §3, §4, §5, §6

Melanoma (Skmel 2) = details: SKIN: Melanoma (Skmel 2)
Method: as §1, §2, §3, §4, §5, §6

Melanoma (Skmel 28) = details: SKIN: Melanoma (Skmel 28)
Method: as §1, §2, §3, §4, §5, §6

PaCa2 = details: PANCREAS: PaCa2
Method: as §1, §2, §3, §4, §5, §6

[4] = system: SCC, Squamous cell carcinoma; details: SKIN: SCC
Method: as §1, §2, §3, §4, §5, §6

COC1=C(OC)C(=O)C(C/C=C(\C)CC/C=C(\C)CC/C=C(\C)CC/C=C(\C)CC/C=C(\C)CC/C=C(\C)CC/C=C(\C)CC/C=C(\C)CC/C=C(\C)CCC=C(C)C)=C(C)C1=O [CoQ10, Coenzyme Q10]
Indication of Early apoptosis (Bcl-2, annexin V, or caspase activation) (BT-20): Strong
Minimal CoQ10 concentration required for induction of early apoptosis, Concentration (BT-20): 100 µM
Minimal treatment time required for induction of early apoptosis, Time (BT-20): 48 h
Indication of Early apoptosis (Bcl-2, annexin V, or caspase activation) [1]: None
Indication of Early apoptosis (Bcl-2, annexin V, or caspase activation) (MDA MB 468): Strong
Minimal CoQ10 concentration required for induction of early apoptosis, Concentration (MDA MB 468): 100 µM
Minimal treatment time required for induction of early apoptosis, Time (MDA MB 468): 48 h
Indication of Early apoptosis (Bcl-2, annexin V, or caspase activation) (Osteosarcoma (143b)): Very Strong
Minimal CoQ10 concentration required for induction of early apoptosis, Concentration (Osteosarcoma (143b)): 50 µM
Minimal treatment time required for induction of early apoptosis, Time (Osteosarcoma (143b)): 48 h
Minimal CoQ10 concentration required for induction of early apoptosis, Concentration (Ewing's sarcoma (NCI)): 5 µM
Minimal treatment time required for induction of early apoptosis, Time (Ewing's sarcoma (NCI)): 1 h
Indication of Early apoptosis (Bcl-2, annexin V, or caspase activation) (Ewing's sarcoma (NCI); cell wraps: Extremely / strong): Extremely
Indication of Early apoptosis (Bcl-2, annexin V, or caspase activation) [2]: None
Indication of Early apoptosis (Bcl-2, annexin V, or caspase activation) (PC3): Very Strong
Minimal CoQ10 concentration required for induction of early apoptosis, Concentration (PC3): 25 µM
Minimal treatment time required for induction of early apoptosis, Time (PC3): 24 h
Indication of Early apoptosis (Bcl-2, annexin V, or caspase activation) (SkBr-3): Very Strong
Minimal CoQ10 concentration required for induction of early apoptosis, Concentration (SkBr-3): 50 µM
Minimal treatment time required for induction of early apoptosis, Time (SkBr-3): 24 h
Indication of Early apoptosis (Bcl-2, annexin V, or caspase activation) (Melanocytes (Hema, LP)): None
Indication of Early apoptosis (Bcl-2, annexin V, or caspase activation) [3]: None
Indication of Early apoptosis (Bcl-2, annexin V, or caspase activation) (ZR-75): Slight
Minimal CoQ10 concentration required for induction of early apoptosis, Concentration (ZR-75): 200 µM
Minimal treatment time required for induction of early apoptosis, Time (ZR-75): 72 h
Indication of Early apoptosis (Bcl-2, annexin V, or caspase activation) (Hep3B): Very Strong
Minimal CoQ10 concentration required for induction of early apoptosis, Concentration (Hep3B): 50 µM
Minimal treatment time required for induction of early apoptosis, Time (Hep3B): 24 h
Indication of Early apoptosis (Bcl-2, annexin V, or caspase activation) (HepG2): Very Strong
Minimal CoQ10 concentration required for induction of early apoptosis, Concentration (HepG2): 50 µM
Minimal treatment time required for induction of early apoptosis, Time (HepG2): 24 h
Indication of Early apoptosis (Bcl-2, annexin V, or caspase activation) (Fibroblasts (nFib)): None
Indication of Early apoptosis (Bcl-2, annexin V, or caspase activation) (Melanoma (Skmel 2)): Very Strong
Minimal CoQ10 concentration required for induction of early apoptosis, Concentration (Melanoma (Skmel 2)): 25 µM
Minimal treatment time required for induction of early apoptosis, Time (Melanoma (Skmel 2)): 24 h
Indication of Early apoptosis (Bcl-2, annexin V, or caspase activation) (Melanoma (Skmel 28)): Strong
Minimal CoQ10 concentration required for induction of early apoptosis, Concentration (Melanoma (Skmel 28)): 20 µM
Minimal treatment time required for induction of early apoptosis, Time (Melanoma (Skmel 28)): 24 h
Indication of Early apoptosis (Bcl-2, annexin V, or caspase activation) (PaCa2): Very Strong
Minimal CoQ10 concentration required for induction of early apoptosis, Concentration (PaCa2): 25 µM
Minimal treatment time required for induction of early apoptosis, Time (PaCa2): 24 h
Indication of Early apoptosis (Bcl-2, annexin V, or caspase activation) [4]: Very Strong
Minimal CoQ10 concentration required for induction of early apoptosis, Concentration [4]: 25 µM
Minimal treatment time required for induction of early apoptosis, Time [4]: 24 h
